# Measured values published in PubChem BioAssay AID1963961 (Molecular Pharmacology Branch, DTP, NCI, 2024).
# System: K98450-129-R-PDC multicell spheroids, viability
# Test: Anticancer human tumor K98450-129-R-PDC patient-derived colon adenocarcinoma cell line growth inhibition [PI3K]
# Details: for IC50: curve of first compound; for viability, T/C: stronger effect = lower value
# Excerpt: Combinatorial screen of targeted agents with the PI3K inhibitors inavolisib, alpelisib, duvelisib, and copanlisib in multi-cell type tumor spheroids
# A high-throughput screen of multi-cell type tumor spheroids was designed to identify active combinations of targeted small molecules and PI3K pathway inhibitors. Complex spheroids include a stromal component modeled by human endothelial cells (HUVEC) and fibroblasts modeled by human mesenchymal stem cells (MSCs). The concentration ranges selected for each drug and investigational agent were based upon clinically achievable concentrations if the clinical Cmax of the agent was known.
# Compounds. The drugs and investigational agents: inavolisib (NSC800729), alpelisib (NSC765974), duvelisib (NSC772469), copanlisib (NSC816437), ipatasertib (NSC767898), afuresertib (NSC778305), talazoparib (NSC767125), sapanisertib (NSC764658), selumetinib (NSC741078), tovorafenib (DAY101, NSC766906), vemurafenib (NSC761431), ravoxertinib (NSC781343), sotorasib (NSC818433), MRTX1133 (NSC 836407), abemaciclib (NSC 768073), palbociclib (NSC758247), venetoclax (NSC 766270), SY5609 (NSC837396), enzalutamide (NSC755605), and darolutamide (NSC825331), were obtained from the National Cancer Institute (NCI) Developmental Therapeutics Program Chemical Repository. The FDA-approved anticancer drug set is available from the NCI Developmental Therapeutics Program. […] The stock solutions were prepared in dimethyl sulfoxide (DMSO, Sigma-Aldrich, St. Louis, MO, cat. D2650) at 800-fold the tested concentration and stored at -70 degrees C prior to their use. All drugs and investigational agents were tested over a range starting from a high concentration at or near the clinical Cmax and decreasing in half-log increments. If the clinical Cmax for an agent had not been determined, the highest concentration tested was 10 microM.
# Cell Culture. All cells were maintained in an incubator at 37 degrees C and 5% CO2 with 95% humidity. The PDC lines were cultured according to standard operating procedures established by the NCI PDMR (https://pdmr.cancer.gov/sops/default.htm). All PDCs were thawed and cultured in Matrigel-coated flasks prepared with a working solution of 1X Ham's F-12 nutrient mix, without supplementation (Invitrogen, Waltham, MA, cat. 11765054), 100 U/mL penicillin-streptomycin (Invitrogen, cat. 15140122), and 2.5% Matrigel (Corning Inc., Corning, NY, cat. 354248) for the first three passages. The 354836-022-R-J1-PDC, 475296-252-R-J1-PDC, and 997726-040-R-J2-PDC lines were cultured in 6A media, which includes advanced DMEM/F-12 (Thermo Fisher Scientific, cat. 12634028), 10 mM HEPES (Thermo Fisher Scientific, cat. 15630080), 1X GlutaMAX supplement (Thermo Fisher Scientific, cat. 35050061), 0.1 mg/mL primocin (InvivoGen, San Diego, CA, cat. ant-pm-2), 10% defined fetal bovine serum, heat inactivated (HyClone Laboratories Inc., Logan, UT, cat. SH30070.03HI), 50% L-WRN conditioned media (ATCC, cat. CRL-3276), 1.25 mM N-Acetyl-L-cysteine (Sigma-Aldrich, cat. A9165), 10 mM nicotinamide (Sigma-Aldrich, cat. N0636), 1X B-27 supplement (Thermo Fisher Scientific, cat. 17504044), 1X N-2 supplement (Thermo Fisher Scientific, cat. 17502048), and 10 microM Y-27632 dihydrochloride (Tocris Bioscience, Bristol, United Kingdom, cat. 1254). The 624824-186-R-J2-PDC line was cultured in 6C/Colon 1B media, which includes all 6A media components plus 50 ng/mL human EGF recombinant protein (Thermo Fisher Scientific, cat. PHG0311). […]
# [1] = second compound 0.0316 µM, first compound 0.0316 µM
# [2] = second compound 0.0316 µM, first compound 0.1 µM
# [3] = second compound 0.0316 µM, first compound 0.316 µM
# [4] = second compound 0.0316 µM, first compound 1 µM
# [5] = second compound 0.0316 µM, first compound 3.16 µM
# [6] = second compound 0.0316 µM, first compound 10 µM
# [7] = second compound 0.1 µM, first compound 0.0316 µM
# [8] = second compound 0.1 µM, first compound 0.1 µM
# [9] = second compound 0.1 µM, first compound 0.316 µM
# [10] = second compound 0.1 µM, first compound 1 µM
# [11] = second compound 0.1 µM, first compound 3.16 µM
# [12] = second compound 0.1 µM, first compound 10 µM
# [13] = second compound 0.316 µM, first compound 0.0316 µM
# [14] = second compound 0.316 µM, first compound 0.1 µM
# [15] = second compound 0.316 µM, first compound 0.316 µM
# [16] = second compound 0.316 µM, first compound 1 µM
# [17] = second compound 0.316 µM, first compound 3.16 µM
# [18] = second compound 0.316 µM, first compound 10 µM
# [19] = second compound 1 µM, first compound 0.0316 µM
# [20] = second compound 1 µM, first compound 0.1 µM
# [21] = second compound 1 µM, first compound 0.316 µM
# [22] = second compound 1 µM, first compound 1 µM
# [23] = second compound 1 µM, first compound 3.16 µM
# [24] = second compound 1 µM, first compound 10 µM
# 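Note: spheroids exposed to agents for seven days before read-out.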
compound,measurement,setting,value
CC1(C)CCC(CN2CCN(c3ccc(C(=O)NS(=O)(=O)c4ccc(NCC5CCOCC5)c([N+](=O)[O-])c4)c(Oc4cnc5[nH]ccc5c4)c3)CC2)=C(c2ccc(Cl)cc2)C1 + COc1c(OCCCN2CCOCC2)ccc2c3n(c(=NC(=O)c4cnc(N)nc4)nc12)CCN3,IC50,second compound 0.00316 µM,> 10 µM
same,IC50,second compound 0.01 µM,> 10 µM
same,IC50,second compound 0.0316 µM,> 10 µM
same,IC50,second compound 0.1 µM,> 10 µM
same,IC50,second compound 0.316 µM,> 10 µM
same,IC50,second compound 1 µM,> 10 µM
same,"viability, T/C","second compound 0.00316 µM, first compound 0.0316 µM",94.9%
same,"viability, T/C","second compound 0.00316 µM, first compound 0.1 µM",112%
same,"viability, T/C","second compound 0.00316 µM, first compound 0.316 µM",107%
same,"viability, T/C","second compound 0.00316 µM, first compound 1 µM",96.1%
same,"viability, T/C","second compound 0.00316 µM, first compound 3.16 µM",93.7%
same,"viability, T/C","second compound 0.00316 µM, first compound 10 µM",97.1%
same,"viability, T/C","second compound 0.01 µM, first compound 0.0316 µM",125%
same,"viability, T/C","second compound 0.01 µM, first compound 0.1 µM",111%
same,"viability, T/C","second compound 0.01 µM, first compound 0.316 µM",119%
same,"viability, T/C","second compound 0.01 µM, first compound 1 µM",104%
same,"viability, T/C","second compound 0.01 µM, first compound 3.16 µM",95.7%
same,"viability, T/C","second compound 0.01 µM, first compound 10 µM",86%
same,"viability, T/C",[1],101%
same,"viability, T/C",[2],96.3%
same,"viability, T/C",[3],104%
same,"viability, T/C",[4],99.6%
same,"viability, T/C",[5],96.8%
same,"viability, T/C",[6],85.1%
same,"viability, T/C",[7],72.8%
same,"viability, T/C",[8],76.8%
same,"viability, T/C",[9],91.2%
same,"viability, T/C",[10],90.5%
same,"viability, T/C",[11],80.4%
same,"viability, T/C",[12],72.7%
same,"viability, T/C",[13],60%
same,"viability, T/C",[14],48%
same,"viability, T/C",[15],75.6%
same,"viability, T/C",[16],60.6%
same,"viability, T/C",[17],53.5%
same,"viability, T/C",[18],55.2%
same,"viability, T/C",[19],49.1%
same,"viability, T/C",[20],49.6%
same,"viability, T/C",[21],59.6%
same,"viability, T/C",[22],54.6%
same,"viability, T/C",[23],41.4%
same,"viability, T/C",[24],54.2%
CC1(C)CCC(CN2CCN(c3ccc(C(=O)NS(=O)(=O)c4ccc(NCC5CCOCC5)c([N+](=O)[O-])c4)c(Oc4cnc5[nH]ccc5c4)c3)CC2)=C(c2ccc(Cl)cc2)C1 + CC(Nc1ncnc2nc[nH]c12)c1cc2cccc(Cl)c2c(=O)n1-c1ccccc1,IC50,second compound 0.0316 µM,5.26 µM
same,IC50,second compound 0.1 µM,5.65 µM
same,IC50,second compound 0.316 µM,5.38 µM
same,IC50,second compound 1 µM,5.29 µM
same,IC50,second compound 3.16 µM,5.48 µM
same,IC50,second compound 10 µM,5.13 µM
same,"viability, T/C",[1],96.2%
same,"viability, T/C",[2],94.7%
same,"viability, T/C",[3],96.2%
same,"viability, T/C",[4],118%
same,"viability, T/C",[5],84.8%
same,"viability, T/C",[6],6.25%
same,"viability, T/C",[7],100%
same,"viability, T/C",[8],104%
same,"viability, T/C",[9],105%
same,"viability, T/C",[10],100%
same,"viability, T/C",[11],97.4%
same,"viability, T/C",[12],3.46%
same,"viability, T/C",[13],135%
same,"viability, T/C",[14],104%
same,"viability, T/C",[15],94.9%
same,"viability, T/C",[16],98.6%
same,"viability, T/C",[17],94.4%
same,"viability, T/C",[18],3.48%
same,"viability, T/C",[19],87.8%
same,"viability, T/C",[20],116%
same,"viability, T/C",[21],89%
same,"viability, T/C",[22],88.5%
same,"viability, T/C",[23],87.5%
same,"viability, T/C",[24],3.81%
same,"viability, T/C","second compound 3.16 µM, first compound 0.0316 µM",85.8%
same,"viability, T/C","second compound 3.16 µM, first compound 0.1 µM",105%
same,"viability, T/C","second compound 3.16 µM, first compound 0.316 µM",90.4%
same,"viability, T/C","second compound 3.16 µM, first compound 1 µM",86.1%
same,"viability, T/C","second compound 3.16 µM, first compound 3.16 µM",95.8%
same,"viability, T/C","second compound 3.16 µM, first compound 10 µM",3.31%
same,"viability, T/C","second compound 10 µM, first compound 0.0316 µM",86.4%
same,"viability, T/C","second compound 10 µM, first compound 0.1 µM",87.6%
same,"viability, T/C","second compound 10 µM, first compound 0.316 µM",82.9%
same,"viability, T/C","second compound 10 µM, first compound 1 µM",75.3%
same,"viability, T/C","second compound 10 µM, first compound 3.16 µM",88.1%
same,"viability, T/C","second compound 10 µM, first compound 10 µM",3.12%
